Data: patent publication US20260250318A1, “COMPOSITIONS AND METHODS FOR CROSSING THE BLOOD BRAIN BARRIER” (VOYAGER THERAPEUTICS, INC., priority 2022, published 2026)

Tested on: brains, heart, liver, muscle, and DRG of the NHPs
Test: Maturation of TTM-001 and TTM-002 capsids, NGS enrichment in NHP tissues
Assay type: in vivo
Source text: This Example describes maturation of the AAV9 capsid variants, TTM-001 (SEQ ID NO: 981 (amino acid) and 983 (DNA), comprising SEQ ID NO: 941 (encoded by SEQ ID NO: 942)) and TTM-002 (SEQ ID NO: 982 (amino acid) and 984 (DNA), comprising SEQ ID NO: […] (encoded by SEQ ID NO: 944)) in NHPs to further enhance their transduction and biodistribution in the central nervous system as well as other tissues, and evolve the AAV capsid variants to provide further cross-species compatibility. Two approaches were used to mature the TTM-001 and TTM-002 capsid sequences in order to randomize and mutate within and around the peptide insert comprised within loop IV of the capsid variant. […] In the first maturation approach, sets of three contiguous amino acids were randomized across the mutagenesis region in the TTM-001 and TTM-002 sequences, which spanned from position 450 to position 466, numbered according to SEQ ID NO: 981 and 982. In the second maturation approach, mutagenic primers were used to introduce point mutations at a low frequency, scattered across the mutagenesis region in the TTM-001 and TTM-002 sequences ranging from position 449 to position 466, numbered according to SEQ ID NO: 981 and 982. AAV capsid variants arising from each maturation approach for TTM-001 and TTM-002 were pooled together, for subsequent testing and characterization in NHPs.
The library of pooled matured AAV capsid variants generated using the first maturation approach and the second maturation approach for the TTM-001 and TTM-002 AAV capsid variants were injected into two NHPs. […] Following RNA recovery and RT-PCR amplification, a systematic NGS enrichment analysis was performed to calculate the fold enrichment ratio relative to an AAV9 control, and the peptides comprised within the variants were identified.
Following the RNA recovery and NGS analysis from the second maturation approach, approximately 680,000 capsid variants were identified. The 680,000 matured capsid variants were then filtered based on samples with a raw virus count greater than 10 and a coefficient of variance (CV) of less than 1, which was calculated for each peptide across the brain samples taken from the two NHPs. […] Using this filtering criteria, this led to approximately 64,000 matured capsid variants.

[1] = NHP DRG, NGS, relative to AAV9 control
[2] = NHP brain, NGS, relative to AAV9 control
[3] = NHP heart, NGS, relative to AAV9 control
[4] = NHP liver DNA, NGS, relative to AAV9 control
[5] = NHP liver RNA, NGS, TTM-001 and TTM-002 matured AAV capsid variants, relative to AAV9 control
[6] = NHP muscle, NGS, relative to AAV9 control

Sequence | Fold Enrichment relative to AAV9, DRG (NHP) [1] [fold] | Fold Enrichment relative to AAV9, Brain (NHP) [2] [fold] | Fold Enrichment relative to AAV9, Heart (NHP) [3] [fold] | Fold Enrichment relative to AAV9, Liver DNA (NHP) [4] [fold] | Fold Enrichment relative to AAV9, Liver RNA (NHP) [5] [fold] | Fold Enrichment relative to AAV9, Muscle (NHP) [6] [fold] | Fold Enrichment relative to AAV9, DRG (NHP) (NGS fold-enrichment, DRG, NHP, relative to AAV9) [fold] | Fold Enrichment relative to AAV9, Brain (NHP) (NGS fold-enrichment, brain, NHP, relative to AAV9) [fold] | Fold Enrichment relative to AAV9, Heart (NHP) (NGS fold-enrichment, heart, NHP, relative to AAV9) [fold] | Fold Enrichment relative to AAV9, Liver DNA (NHP) (NGS fold-enrichment, liver DNA, NHP, relative to AAV9) [fold] | Fold Enrichment relative to AAV9, Liver RNA (NHP) (NGS fold-enrichment, liver RNA, NHP, relative to AAV9) [fold] | Fold Enrichment relative to AAV9, Muscle (NHP) (NGS fold-enrichment, muscle, NHP, relative to AAV9) [fold]
KTINGSGSPHSMCQNQQT | 0.000 | 0.000 | 0.000 | 1.348 | 37.209 | 0.000 |  |  |  |  |  | 
KTINGSGSPHSMCTNQQT | 0.000 | 0.000 | 0.000 | 0.392 | 13.114 | 0.000 |  |  |  |  |  | 
KTINGSGSPHSMYMNQQT | 0.000 | 0.000 | 0.000 | 5.840 | 81.106 | 0.000 |  |  |  |  |  | 
KTINGSGSPHSPPDNQQT | 0.000 | 0.000 | 0.000 | 0.033 | 12.973 | 0.000 |  |  |  |  |  | 
KTINGSGSPHSRCPNQQT | 0.000 | 0.000 | 0.000 | 4.890 | 39.529 | 0.000 |  |  |  |  |  | 
KTINGSGSPHSRCRNQQT | 0.000 | 0.000 | 0.000 | 5.150 | 64.416 | 0.000 |  |  |  |  |  | 
KTINGSGSPHSRFWNQQT | 0.000 | 0.000 | 0.000 | 6.955 | 51.225 | 0.000 |  |  |  |  |  | 
KTINGSGSPHSRMRNQQT | 0.000 | 0.000 | 0.000 | 2.816 | 48.902 | 0.000 |  |  |  |  |  | 
KTINGSGSPHSSCTNQQT | 0.000 | 0.000 | 0.000 | 3.363 | 11.382 | 0.000 |  |  |  |  |  | 
KTINGSGSPHSTCLNQQT | 0.000 | 0.000 | 0.000 | 4.762 | 11.132 | 0.000 |  |  |  |  |  | 
KTINGSGSPHSTTCNQQT | 0.000 | 0.000 | 0.000 | 3.315 | 23.771 | 0.000 |  |  |  |  |  | 
KTINGSGSPHSVFENQQT |  |  |  |  |  |  | 0.000 | 0.000 | 0.000 | 0.224 | 10.218 | 0.000
KTINGSGSPHSVKKNQQT | 0.000 | 0.000 | 0.000 | 3.908 | 48.475 | 0.000 |  |  |  |  |  | 
